# How the values were obtained:
# [1] = system: PanC-1 pancreatic cancer cells; assay: hexoseaminidase cell proliferation assay, PanC-1; assay type: cell-based; details: Homo sapiens
# Description: (§1) Using hexoseaminidase assay, we determined the effect of the compounds on cell proliferation. […] The IC50 value at 48 hours is below 10 μM in all the cancer cell lines.
# (§2) Using hexoseaminidase assay, we determined the effect of the compounds on cell proliferation. […] The MRL16 IC50 value at 48 hours is below 0.3 μM in Colon cancer cell lines. […] Overall, the analogs can be used as chemotherapeutic agents against colon and pancreatic cancer.
# [2] = system: MiaPaCa-2 pancreatic cancer cells; assay: hexoseaminidase cell proliferation assay, MiaPaCa-2; assay type: cell-based; details: Homo sapiens, MIA PaCa-2
# Description: as §1, §2
# [3] = system: colon, pancreatic and bladder cancer cells; assay: hexoseaminidase cell proliferation assay, summaries over cell lines; assay type: cell-based; details: for inhibition of cell proliferation (in words): dose and time dependent
# Description: Water solubility studies were performed with the CD/analog complexes. […] The observed IC50 value of THBCD at 48 h is below 10 μM in all the colon, pancreatic and bladder cancer cells.
# as §1, §2
# [4] = system: HCT116 cells; assay: cell cycle analysis, HCT116; assay type: cell-based; details: for cell cycle effect (in words): HCT116 cells
# [5] = system: HCT116 colon cancer cells; assay: hexoseaminidase cell proliferation assay, HCT116; assay type: cell-based; details: Homo sapiens, HCT-116
# Excerpt: (§3) Using hexoseaminidase assay, we determined the effect of the compounds on cell proliferation. […]
# (§4) Using hexoseaminidase assay, we determined the effect of the compounds on cell proliferation. […] […] […] Overall, the analogs can be used as chemotherapeutic agents against colon and pancreatic cancer.
# [6] = system: SW480 cells; assay: cell cycle analysis, SW480; assay type: cell-based
# Description: The analogs were tested to determine the ability induce death of colon cancer cells.
# [7] = system: HCT116 cells; assay: colonosphere formation, HCT116; assay type: cell-based
# Excerpt: These compounds may be preferred in some instances.
# [8] = system: HCT116 cells; assay: colony formation, HCT116; assay type: cell-based
# [9] = system: SW480 colon cancer cells; assay: hexoseaminidase cell proliferation assay, SW480; assay type: cell-based; details: Homo sapiens
# Excerpt: as §3, §4
# [10] = system: HCT116 colon cancer tumor xenografts; assay: HCT116 colon cancer tumor xenografts in nude mice; assay type: in vivo
# Description: (§5) For in vivo, HCT116 cells were injected into the blanks of nude mice, after one week when there was a palpable tumor and these compounds were injected intraperitonially (5 mg/kg body weight) every day for 21 days. Tumor volumes were measured weekly. On 29th day mice were euthanized and the tumors were removed and weighed for use in histology, immunohistochemistry, and gene expression studies. Both THB and THBCD inhibited growth of the tumor. It is noted that the images of FIG. 4C are from left to right: control; THB; and THBCD.
# as §5, with “DBQ” for “Both THB and THBCD”, “inhibited the” for “inhibited”, “16C” for “4C”, “control;” for “control; THB;”, “DBQ.” for “THBCD.”
# FIGS. 19A and 19B show MRL 16 inhibits tumor growth, such as on colon cancer tumor xenografts. For in vivo, HCT116 cells were injected into the blanks of nude mice, after one week when there was a palpable tumor and these compounds were injected intraperitonially (2 mg/kg body weight) every day for 21 days. Tumor volumes were measured weekly. On 29th day mice were euthanized and the tumors were removed and weighed. MRL16 inhibited growth of the tumor.
# [11] = system: SW480 cells; assay: colony formation, SW480; assay type: cell-based
# [12] = system: transcription factor NF-κB; details: previous studies, Cancer Res. 2008; cited from earlier work
# [13] = system: MiaPaCa-2 cells; assay: colony formation, MiaPaCa-2; assay type: cell-based
# [14] = system: KU7 bladder cancer cells; assay: hexoseaminidase cell proliferation assay, KU7; assay type: cell-based
# Description: as §1
# [15] = system: 253JBV bladder cancer cells; assay: hexoseaminidase cell proliferation assay, 253JBV; assay type: cell-based
# Description: as §1
# [16] = system: cancer stem cells; assay: colonosphere formation; assay type: cell-based
# Description: It was also determined the analogs inhibit colonosphere formation from cancer stem cells. […] The columns are 0, 10, 25, and 50 micromolar concentrations of the compounds labeled by rows.
# The effect of the compounds on colonosphere formation was determined. […] Overall, the analogs have shown they can be used as chemotherapeutic agents against colon, pancreatic and bladder cancer.
# [17] = system: PanC-1 cells; assay: colony formation, PanC-1; assay type: cell-based
# [18] = intraperitoneal 2 mg/kg body weight every day for 21 days
# [19] = intraperitoneal 5 mg/kg body weight every day for 21 days
SMILES,"IC50 ([1]; PANC-1, 24 h) [µM]","IC50 ([1]; PANC-1, 48 h) [µM]","IC50 ([1]; PANC-1, 72 h) [µM]","IC50 ([2]; MiaPaCa-2, 24 h) [µM]","IC50 ([2]; MiaPaCa-2, 48 h) [µM]","IC50 ([2]; MiaPaCa-2, 72 h) [µM]",inhibition of cell proliferation (in words) [3],"G0/G1 (%) ([4]; HCT116, 24 h)","G2/M (%) ([4]; HCT116, 24 h)","S (%) ([4]; HCT116, 24 h)","SubG0 Dead Cells (%) ([4]; HCT116, 24 h)","G0/G1 (%) ([4]; HCT116, 48 h)","G2/M (%) ([4]; HCT116, 48 h)","IC50 ([5]; HCT116, 24 h) [µM]","IC50 ([5]; HCT116, 48 h) [µM]","IC50 ([5]; HCT116, 72 h) [µM]",colony formation [8],"IC50 ([9]; SW480, 24 h) [µM]","IC50 ([9]; SW480, 48 h) [µM]","IC50 ([9]; SW480, 72 h) [µM]",also measured
C/C(=N\NC(=O)c1ccncc1)c1ccc2ccccc2c1O [MRL16],> 10,4,2.5,> 10,> 10,5,potent inhibitor,57.3,26.9,14.5,1.11,63.7,19.9,> 2,0.3,0.2,inhibit colony formation,> 2,0.3,0.2,"IC50 ([3]; 48 hours, Colon cancer cell lines): < 0.3 µM; S (%) ([4]; HCT116, 48 h): 14.4%; SubG0 Dead Cells (%) ([4]; HCT116, 48 h): 1.70%; cell cycle effect (in words) [4]: induces G2/M arrest; G0/G1 (%) ([6]; SW480, 24 h): 59.8%; G2M/ (%) ([6]; SW480, 24 h): 19.7%; S (%) ([6]; SW480, 24 h): 19.7%; SubG0 Dead Cells (%) ([6]; SW480, 24 h): 0.77%; cell cycle effect (in words) ([6]; SW480, 24 h): induces G1 arrest; G0/G1 (%) ([6]; SW480, 48 h): 58.4%; G2M/ (%) ([6]; SW480, 48 h): 20.1%; S (%) ([6]; SW480, 48 h): 20.0%; SubG0 Dead Cells (%) ([6]; SW480, 48 h): 1.05%; cell cycle effect (in words) ([6]; SW480, 48 h): S-phase arrest; colonosphere formation [7]: inhibits colonosphere formation; tumor volume [10, 18]: significantly reduced; tumor weight [10, 18]: significantly reduced"
"COc1cc(OC)c2ccc(C=O)c(O)c2c1 [MRL, 1-hydroxy-5,7-dimethoxy-2-naphthalene-carboxaldehyde, reference compound]",> 50,> 50,> 50,> 50,> 50,> 50,–,–,–,–,–,–,–,> 50,> 50,> 50,does not appear to significantly inhibit colony formation,> 50,> 50,> 50,"colony formation [11]: does not appear to significantly inhibit colony formation; G0/G1 (%) ([4]; HCT116, Table 3): 45.3%; G2M (%) ([4]; HCT116, Table 3): 11.4%; S (%) ([4]; HCT116, Table 3): 11.5%; SubG0 Dead Cells (%) ([4]; HCT116, Table 3): 29.9%; action of transcription factor NF-κB [12]: can inhibit; G0/G1 (%) ([6]; SW480, Table 3): 65.3%; G2M (%) ([6]; SW480, Table 3): 18.1%; S (%) ([6]; SW480, Table 3): 10.2%; SubG0 Dead Cells (%) ([6]; SW480, Table 3): 6.0%"
C/C(=N\NC(=O)c1cccnc1)c1ccc2ccccc2c1O [MRL17],> 10,3,1,> 10,> 10,5,potent inhibitor,63.9,20.9,14.0,0.99,63.1,20.8,> 2,1,0.8,inhibit colony formation,> 2,1,0.6,"S (%) ([4]; HCT116, 48 h): 14.3%; SubG0 Dead Cells (%) ([4]; HCT116, 48 h): 1.57%; cell cycle effect (in words) [4]: induces G2/M arrest; G0/G1 (%) ([6]; SW480, 24 h): 54.9%; G2M/ (%) ([6]; SW480, 24 h): 22.0%; S (%) ([6]; SW480, 24 h): 22.3%; SubG0 Dead Cells (%) ([6]; SW480, 24 h): 0.50%; cell cycle effect (in words) ([6]; SW480, 24 h): induces G1 arrest; G0/G1 (%) ([6]; SW480, 48 h): 59.3%; G2M/ (%) ([6]; SW480, 48 h): 18.3%; S (%) ([6]; SW480, 48 h): 20.8%; SubG0 Dead Cells (%) ([6]; SW480, 48 h): 1.12%; cell cycle effect (in words) ([6]; SW480, 48 h): S-phase arrest; colonosphere formation [7]: inhibits colonosphere formation"
CC(C)(C)C1=CC(=NNC(=O)c2cc3ccccc3cc2O)C=C(C(C)(C)C)C1=O [DBQ],45,9,7,25,8,6,potent inhibitor,–,–,–,–,–,–,10,5,5,inhibit colony formation,10,6,5,"colony formation [13]: inhibit colony formation; colony formation [11]: inhibit colony formation; IC50 ([14]; KU7, 24 h): 20 µM; IC50 ([14]; KU7, 48 h): 8 µM; IC50 ([14]; KU7, 72 h): 6 µM; IC50 ([15]; 24 h): 50 µM; IC50 ([15]; 48 h): 25 µM; IC50 ([15]; 72 h): 6 µM; IC50 ([3]; 48 h, all the colon, pancreatic and bladder cancer cell lines): < 10 µM; colonosphere formation [16]: potent inhibitors of colonosphere formation; colony formation [17]: inhibit colony formation; cell cycle effect (in words) ([4]; 5 μM and 10 μM, 24 hours, propidium iodide flow cytometry): induces G2/M arrest; tumor volume [10, 19]: significantly reduced; tumor weight [10, 19]: significantly reduced"
